Values after ≈ are worked out from the molar mass of the structure shown.
Tests used:
Test in all cases: ≥ marks a high value that may be exact or a test limit, other limits are often not marked, values filed in µg/mL are converted to µM
[1] = tested on: Agrobacterium tumefaciens LBA 4404
[2] = tested on: Aspergillus niger IFO 4416
Bacillus cereus IFO 3514 = tested on: Bacillus cereus IFO 3514
[3] = tested on: Bacillus subtilis IFO 3336
[4] = tested on: Candida albicans IFO 1385
Candida boidinii MIP 104 = tested on: Candida boidinii MIP 104
[5] = tested on: Enterococcus faecalis JCM 8726
[6] = tested on: Escherichia coli IFO 3301
[7] = tested on: Geobacillus stearothermophilus IFO12550
[8] = tested on: Kitasatospora kifunensis MN1
[9] = tested on: Levilactobacillus brevis IFO 3345
[10] = tested on: Pseudomonas aeruginosa IFO 3445
[11] = tested on: Saccharomyces cerevisiae KK4
[12] = tested on: Salmonella typhimurium IFO 12529
[13] = tested on: Staphylococcus aureus ATCC 33591
[14] = tested on: Staphylococcus aureus IFO 13276
[15] = tested on: Escherichia coli PCM 2057
[16] = tested on: Staphylococcus aureus PCM 1944
[17] = tested on: Bacillus subtilis KCTC 3068
[18] = tested on: Escherichia coli KCTC 1682
[19] = tested on: Pseudomonas aeruginosa CCARM 2095
[20] = tested on: Pseudomonas aeruginosa CCARM 2109
[21] = tested on: Pseudomonas aeruginosa KCTC 1637
[22] = tested on: Salmonella typhimurium KCTC 1926
[23] = tested on: Staphylococcus aureus CCARM 3001
[24] = tested on: Staphylococcus aureus CCARM 3543
[25] = tested on: Staphylococcus aureus KCTC 1621
[26] = tested on: Staphylococcus epidermidis KCTC 1917
[27] = tested on: Bacillus subtilis ATCC 6633
[28] = tested on: Pseudomonas fluorescens ATCC 13525
[29] = tested on: Staphylococcus aureus ATCC 2592
[30] = tested on: Bacteroides fragilis ATCC 25285
Bacteroides fragilis = tested on: Bacteroides fragilis
[31] = tested on: Candida albicans ATCC 90028
[32] = tested on: Clostridium perfringens ATCC 10543
Clostridium septicum = tested on: Clostridium septicum
[33] = tested on: Clostridium tertium ATCC 19465
[34] = tested on: Cutibacterium acnes ATCC 11828
Cutibacterium acnes = tested on: Cutibacterium acnes
[35] = tested on: Enterobacter cloacae HNTCC 53001
[36] = tested on: Enterococcus faecalis ATCC 29212
[37] = tested on: Escherichia coli ATCC 25922
Fusobacterium nucleatum = tested on: Fusobacterium nucleatum
[38] = tested on: Fusobacterium varium ATCC 27725
[39] = tested on: Klebsiella pneumoniae KK3 9904
[40] = tested on: Peptoniphilus asaccharolyticus ATCC 29743
[41] = tested on: Peptostreptococcus anaerobius
[42] = tested on: Prevotella melaninogenica
[43] = tested on: Proteus mirabilis ATCC 25933
[44] = tested on: Pseudomonas aeruginosa ATCC 27853
[45] = tested on: Salmonella enterica subsp. enterica serovar Typhimurium LT2
[46] = tested on: Staphylococcus aureus NCTC 8325
[47] = tested on: Staphylococcus aureus T27/9
[48] = tested on: Staphylococcus aureus T7/20
[49] = tested on: Staphylococcus aureus T7/5
[50] = tested on: Staphylococcus epidermidis RP62A

NC(N)=NCCC[C@H](NC(=O)[C@H](Cc1cnc[nH]1)NC(=O)[C@H](CCCN=C(N)N)NC(=O)[C@H](Cc1cnc[nH]1)NC(=O)[C@H](CCCN=C(N)N)NC(=O)[C@H](Cc1cnc[nH]1)NC(=O)[C@H](CCCN=C(N)N)NC(=O)[C@H](Cc1cnc[nH]1)NC(=O)[C@@H](N)CCCN=C(N)N)C(=O)N[C@@H](Cc1cnc[nH]1)C(=O)O [RHRHRHRHRH] gave an MIC [1] of 6.74 µM (≈ 10 µg/mL), an MIC [2] of no less than 33.7 µM and an MIC (Bacillus cereus IFO 3514) of no less than 269 µM. The MIC [3] was 6.74 µM (≈ 10 µg/mL), the MIC [4] was no less than 67.4 µM and the MIC (Candida boidinii MIP 104) was 6.74 µM (≈ 10 µg/mL). It also gave an MIC [5] of 6.74 µM (≈ 10 µg/mL), an MIC [6] of 6.74 µM (≈ 10 µg/mL) and an MIC [7] of 6.74 µM (≈ 10 µg/mL). For the same compound, the MIC [8] was no less than 269 µM, the MIC [9] was 6.74 µM (≈ 10 µg/mL) and the MIC [10] was 6.74 µM (≈ 10 µg/mL). The MIC [11] was no less than 67.4 µM, the MIC [12] was no less than 101 µM and the MIC [13] was no less than 33.7 µM. It also gave an MIC [14] of no less than 33.7 µM.
With CC[C@H](C)[C@@H]1NC(=O)[C@H](CO)NC(=O)[C@H](CCCCN)NC(=O)[C@@H](N)CSSC[C@@H](C(=O)O)NC(=O)[C@H](Cc2ccccc2)NC1=O [CKSIFC] the MIC [15] was no less than 1430 µM and the MIC [16] was no less than 1430 µM.
CC(C)C[C@H](NC(=O)[C@H](Cc1c[nH]c2ccccc12)NC(=O)[C@H](CCCCN)NC(=O)[C@H](CC(C)C)NC(=O)[C@H](Cc1c[nH]c2ccccc12)NC(=O)[C@H](CC(C)C)NC(=O)[C@H](CCCCN)NC(=O)[C@H](Cc1c[nH]c2ccccc12)NC(=O)[C@H](CC(C)C)NC(=O)[C@@H](N)CCCCN)C(=O)N[C@@H](CCCCN)C(N)=O [KLWKLWLKWLK] gave an MIC [17] of 4 µM (≈ 6.16 µg/mL), an MIC [18] of 4 µM (≈ 6.16 µg/mL) and an MIC [19] of 16 µM (≈ 24.7 µg/mL). For the same compound, the MIC [20] was 16 µM (≈ 24.7 µg/mL), the MIC [21] was 4 µM (≈ 6.16 µg/mL) and the MIC [22] was 2 µM (≈ 3.08 µg/mL). For the same compound, the MIC [23] was 8 µM (≈ 12.3 µg/mL), the MIC [24] was 4 µM (≈ 6.16 µg/mL) and the MIC [25] was 2 µM (≈ 3.08 µg/mL). For the same compound, the MIC [26] was 4 µM (≈ 6.16 µg/mL).
With CC[C@H](C)[C@H](NC(=O)[C@H](CCCCN)NC(=O)[C@H](CC(C)C)NC(=O)[C@H](Cc1ccccc1)NC(=O)[C@H](CO)NC(=O)[C@H](CC(C)C)NC(=O)[C@H](Cc1ccccc1)NC(=O)[C@H](CCCN=C(N)N)NC(=O)[C@H](CO)NC(=O)[C@H](CC(C)C)NC(=O)[C@@H](N)CO)C(=O)N[C@H](C(=O)N[C@@H](Cc1ccc(O)cc1)C(=O)N1CCC[C@H]1C(=O)N1CCC[C@H]1C(=O)N[C@@H](C)C(=O)N[C@@H](Cc1ccccc1)C(N)=O)C(C)C [SLSRFLSFLKIVYPPAF] the MIC [27] was 25.2 µM (≈ 50 µg/mL), the MIC [28] was no less than 50.4 µM and the MIC [29] was 25.2 µM (≈ 50 µg/mL).
With CC[C@H](C)[C@H](NC(=O)[C@H](CO)NC(=O)[C@H](CO)NC(=O)[C@H](CC(C)C)NC(=O)[C@@H](N)Cc1ccccc1)C(=O)NCC(=O)N[C@@H](CCCCN)C(=O)N[C@H](C(=O)N[C@@H](CC(C)C)C(=O)NCC(=O)N[C@@H](CC(N)=O)C(=O)N[C@@H](CC(C)C)C(=O)N[C@@H](CC(C)C)C(N)=O)[C@@H](C)CC [FLSSIGKILGNLL] the MIC [30] was no less than 50 µM, the MIC (Bacteroides fragilis) was no less than 50 µM and the MIC [31] was no less than 160 µM. The MIC [32] was 25 µM (≈ 34.3 µg/mL), the MIC (Clostridium septicum) was no less than 50 µM and the MIC [33] was 12.5 µM (≈ 17.2 µg/mL). It also gave an MIC [34] of 6 µM (≈ 8.24 µg/mL), an MIC (Cutibacterium acnes) of 12.5 µM (≈ 17.2 µg/mL) and an MIC [35] of no less than 40 µM. It also gave an MIC [36] of 40 µM (≈ 54.9 µg/mL), an MIC [37] of 40 µM (≈ 54.9 µg/mL) and an MIC (Fusobacterium nucleatum) of no less than 50 µM. The MIC [38] was no less than 50 µM, the MIC [39] was no less than 80 µM and the MIC [40] was no less than 50 µM. For the same compound, the MIC [41] was 25 µM (≈ 34.3 µg/mL), the MIC [42] was 25 µM (≈ 34.3 µg/mL) and the MIC [43] was no less than 100 µM. The MIC [44] was 160 µM (≈ 220 µg/mL), the MIC [45] was no less than 50 µM and the MIC [46] was 10 µM (≈ 13.7 µg/mL). For the same compound, the MIC [47] was no less than 40 µM, the MIC [48] was 20 µM (≈ 27.5 µg/mL) and the MIC [49] was 20 µM (≈ 27.5 µg/mL). For the same compound, the MIC [50] was 20 µM (≈ 27.5 µg/mL).

Source: DBAASP
